According to patent publication US12274728B2, “Preparation comprising omega-3 fatty acid salts and extracts of gum resins from Boswellia species” (Evonik Operations GmbH, priority 2019, dated 2025):

System: human monocyte-derived M1 macrophages
Assay: Lipid mediator (LM) formation in human monocyte-derived M1 macrophages, UPLC-MS-MS
Type: cell-based
Conditions: M1, single agents: extracts 50 μg/mL, AKBA 10 μM, AvailOm® 3 μg/mL, 180 min (FIG. 1)
Description: Leukocyte concentrates from freshly withdrawn peripheral blood of healthy adult human donors were provided by the Institute of Transfusion Medicine, University Hospital Jena, Germany. The experimental protocol was approved by the ethical committee of the University Hospital Jena. All methods were performed in accordance with the relevant guidelines and regulations. Peripheral blood mononuclear cells (PBMC) were isolated using dextran sedimentation and Ficoll-Histopaque 1077-1 (Sigma-Aldrich, Taufkirchen, Germany) centrifugation. For differentiation and polarization towards M1 and M2, published criteria were used. […]
Macrophages (2×10^6/ml) were incubated in PBS containing 1 mM CaCl2). […] Supernatants were transferred to 2 ml of ice-cold methanol containing 10 μl of deuterium-labeled internal standards (200 nM […], d4-LTB4, d5-LXA4, d5-RvD2, d4-PGE2 and 10 μM d8-AA) to facilitate quantification. […] LM profiling was analyzed with an Acquity™ UPLC system (Waters, Milford, MA) and a QTRAP 5500 Mass Spectrometer (ABSciex, Darmstadt, Germany) equipped with a Turbo VTM Source and electrospray ionization (ESI). […] Quantification was achieved by calibration curves for each LM. […]

Substance: 3-O-acetyl-11-keto-beta-boswellic acid [AKBA]
- LM formation / LM biosynthesis: did not significantly elevate
